Results taken from PubChem BioAssay AID1918957 (Molecular Pharmacology Branch, DTP, NCI, 2023).
“And” between values parts separate entries of the source, which are not always exact repeats. Equal entries are not always repeated.

System: NCI-H1876 complex spheroid viability
Experiment: Anticancer human tumor NCI-H1876 cell line growth inhibition [LSD1];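 note: spheroids exposed to compounds for one week before readout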;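 for viability, T/C: 100% = DMSO vehicle-treated spheroids so lower means fewer viable cells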
Settings: for viability, T/C: stronger effect = lower value
Excerpt: Multicellular complex tumor spheroid response to LSD1 Inhibitor Iadademstat in combination with a variety of drugs and investigational agents in selected tumor cell lines
The current study was undertaken to assess response to LSD1 inhibitors in combination with standard-of-care drugs and investigational agents in solid tumor complex spheroid models as well as in the K-562 leukemia. Complex spheroids include a stromal component modeled by human endothelial cells (HUVEC) and fibroblasts modeled by human mesenchymal stem cells (MSCs). The concentration ranges selected for each drug and investigational agent were based upon clinically achievable concentrations if the clinical Cmax of the agent was known.
Compounds. The drugs and investigational agents used in this study are listed on Table 1. All of the agents used, including staurosporine (NSC755774) and gemcitabine (NSC613327), were obtained from the Developmental Therapeutics Program, NCI. FDA-approved anticancer drugs are available from the NCI at http://dtp.nci.nih.gov/branches/dscb/oncology_drugset_explanation.html. Drugs and investigational agents were >95% pure by proton nuclear magnetic resonance (NMR) and liquid chromatography/mass spectrometry (LC/MS). Stock solutions were prepared at 400x in DMSO, stored at -70 degrees C, and diluted in fresh medium prior to their use. The final concentration of DMSO in cell culture wells never exceeded 0.25% (v/v). The FDA-approved anticancer drug set is available from the Developmental Therapeutics Program at https://dtp.cancer.gov/organization/dscb/obtaining/available_plates.htm. All drugs and investigational agents were tested over a range starting from a high concentration at or near the clinical Cmax and decreasing in half-log increments. If the clinical Cmax for an agent had not been determined, the highest concentration tested was 10 microM.
Cell Lines. The patient-derived cancer cell (PDC) lines: 292921-168-R-J2-PDC, K24384-001-R-PDC, and 521955-158-R2-J5-PDC pancreatic carcinomas, 556581-035-R-J1 ovarian carcinoma, 324938-238-R-J1-PDC, 855422-203-R-J1-PDC and 883617-216-R-J1-PDC urothelial bladder carcinomas, 743489-274-T-PDC renal cell carcinoma, 138582-R-J1 Merkel cell tumor, K60290-347-R-J1 and K57222-313-R-J1-PDC glioblastomas, 653999-131-R-J2-PDC, LG0703-F948-PDC, and 349418-098-R-PDC non-small cell lung carcinomas, 885512-296-R-J2-PDC, 171881-019-R-J1-PDC breast carcinomas and 186277-243-T-J2-PDC and 233499-124-R-J2-PDC colon carcinomas were obtained from the NCI Patient-Derived Models Repository (PDMR, https://pdmr.cancer.gov). The established cell lines NCI/ADR-RES (RRID:CVCL_14520 and OVCAR-5 (RRID:CVCL_1628) ovarian carcinomas, 786-O (RRID:CVCL_1051) and A498 (RRID:CVCL_A498) renal cell carcinoma, NCI-H211 (ATCC, cat. CRL-5824; RRID:CVCL_1529), NCI-H196 (ATCC, cat. CRL-5823, RRID:CVCL_1509), SW 1271 (ATCC, cat. CRL-2177, RRID:CVCL_1716) and NCI-H1876 (ATCC, cat. CRL-5902, RRID:CVCL_1503) small cell lung carcinomas, MDA-MB-231 (RRID:CVCL_0062) and MDA-MB-468 (RRID:CVCL_0419)breast carcinomas (10-12). Pooled donor human umbilical vein endothelial cells (HUVEC, Lonza, cat. CC-2519) and human mesenchymal stem cells (hMSC, Lonza, cat. PT-2501) were purchased from Lonza (Walkersville, MD).
Cell Culture. All cells were maintained in an incubator at 37 degrees C and 5% CO2 with 95% humidity. The PDC lines were cultured according to standard operating procedures established by the NCI PDMR (https://pdmr.cancer.gov). Briefly all PDCs were thawed and cultured in Matrigel-coated flasks prepared with a working solution of 1X Ham's F-12 nutrient mix, without supplementation (Invitrogen, Waltham, MA, cat. 11765054), 100 U/mL penicillin-streptomycin (Invitrogen, cat. 15140122), and 2.5% Matrigel (Corning Inc., Corning, NY, cat. 354248) for the first three passages. […]

[1] = curve of first compound, second compound 0.1 µM
[2] = curve of first compound, second compound 0.316 µM
[3] = curve of first compound, second compound 1 µM
[4] = curve of first compound, second compound 3.16 µM
[5] = curve of first compound, second compound 10 µM
[6] = second compound 0.1 µM, first compound 0.00316 µM
[7] = second compound 0.1 µM, first compound 0.01 µM
[8] = second compound 0.1 µM, first compound 0.0316 µM
[9] = second compound 0.1 µM, first compound 0.1 µM
[10] = second compound 0.1 µM, first compound 0.316 µM
[11] = second compound 0.1 µM, first compound 1 µM
[12] = second compound 0.316 µM, first compound 0.00316 µM
[13] = second compound 0.316 µM, first compound 0.01 µM
[14] = second compound 0.316 µM, first compound 0.0316 µM
[15] = second compound 0.316 µM, first compound 0.1 µM
[16] = second compound 0.316 µM, first compound 0.316 µM
[17] = second compound 0.316 µM, first compound 1 µM
[18] = second compound 1 µM, first compound 0.00316 µM
[19] = second compound 1 µM, first compound 0.01 µM
[20] = second compound 1 µM, first compound 0.0316 µM
[21] = second compound 1 µM, first compound 0.1 µM
[22] = second compound 1 µM, first compound 0.316 µM
[23] = second compound 1 µM, first compound 1 µM
[24] = second compound 3.16 µM, first compound 0.00316 µM
[25] = second compound 3.16 µM, first compound 0.01 µM
[26] = second compound 3.16 µM, first compound 0.0316 µM
[27] = second compound 3.16 µM, first compound 0.1 µM
[28] = second compound 3.16 µM, first compound 0.316 µM
[29] = second compound 3.16 µM, first compound 1 µM
[30] = second compound 10 µM, first compound 0.00316 µM
[31] = second compound 10 µM, first compound 0.01 µM
[32] = second compound 10 µM, first compound 0.0316 µM
[33] = second compound 10 µM, first compound 0.1 µM
[34] = second compound 10 µM, first compound 0.316 µM
[35] = second compound 10 µM, first compound 1 µM

## CCc1c2c(nc3ccc(O)cc13)-c1cc3c(c(=O)n1C2)COC(=O)[C@]3(O)CC + NC1CCC(NC2CC2c2ccccc2)CC1
[1]
  IC50: < 0.949 nM
[2]
  IC50: < 0.949 nM
[3]
  IC50: < 0.949 nM
[4]
  IC50: < 0.949 nM
[5]
  IC50: < 0.949 nM
Second compound 0.1 µM, first compound 0.000949 µM
  viability, T/C: 8.41%
Second compound 0.1 µM, first compound 0.003 µM
  viability, T/C: 6.69%
Second compound 0.1 µM, first compound 0.00949 µM
  viability, T/C: 4.51%
Second compound 0.1 µM, first compound 0.03 µM
  viability, T/C: 17%
Second compound 0.1 µM, first compound 0.0949 µM
  viability, T/C: 0.42%
Second compound 0.1 µM, first compound 0.3 µM
  viability, T/C: 0.51%
Second compound 0.316 µM, first compound 0.000949 µM
  viability, T/C: 9.1%
Second compound 0.316 µM, first compound 0.003 µM
  viability, T/C: 7.39%
Second compound 0.316 µM, first compound 0.00949 µM
  viability, T/C: 26.4%
Second compound 0.316 µM, first compound 0.03 µM
  viability, T/C: 34.6%
Second compound 0.316 µM, first compound 0.0949 µM
  viability, T/C: 0.46%
Second compound 0.316 µM, first compound 0.3 µM
  viability, T/C: 0.47%
Second compound 1 µM, first compound 0.000949 µM
  viability, T/C: 9.13%
Second compound 1 µM, first compound 0.003 µM
  viability, T/C: 7.08%
Second compound 1 µM, first compound 0.00949 µM
  viability, T/C: 3.54%
Second compound 1 µM, first compound 0.03 µM
  viability, T/C: 16.9%
Second compound 1 µM, first compound 0.0949 µM
  viability, T/C: 0.38%
Second compound 1 µM, first compound 0.3 µM
  viability, T/C: 0.41%
Second compound 3.16 µM, first compound 0.000949 µM
  viability, T/C: 7.88%
Second compound 3.16 µM, first compound 0.003 µM
  viability, T/C: 7%
Second compound 3.16 µM, first compound 0.00949 µM
  viability, T/C: 4.05%
Second compound 3.16 µM, first compound 0.03 µM
  viability, T/C: 8.64%
Second compound 3.16 µM, first compound 0.0949 µM
  viability, T/C: 0.31%
Second compound 3.16 µM, first compound 0.3 µM
  viability, T/C: 0.45%
Second compound 10 µM, first compound 0.000949 µM
  viability, T/C: 9.76%
Second compound 10 µM, first compound 0.003 µM
  viability, T/C: 7.48%
Second compound 10 µM, first compound 0.00949 µM
  viability, T/C: 31.4%
Second compound 10 µM, first compound 0.03 µM
  viability, T/C: 8.78%
Second compound 10 µM, first compound 0.0949 µM
  viability, T/C: 15.6%
Second compound 10 µM, first compound 0.3 µM
  viability, T/C: 0.65%

## CC1COCCN1c1cc(-c2ccnn2C)c2ccnc(-c3ccn[nH]3)c2n1 (centres undefined) + NC1CC1c1ccc(-c2cccc(O)c2)cc1
[1]
  IC50: 3.89 nM
[2]
  IC50: 3.77 nM
[3]
  IC50: 4.13 nM
[4]
  IC50: < 3.16 nM
[5]
  IC50: < 3.16 nM
[6]
  viability, T/C: 51.9%
[7]
  viability, T/C: 41.5%
[8]
  viability, T/C: 16.5%
[9]
  viability, T/C: 4.97%
[10]
  viability, T/C: 3.26%
[11]
  viability, T/C: 3.75%
[12]
  viability, T/C: 51.6%
[13]
  viability, T/C: 41.4%
[14]
  viability, T/C: 17.6%
[15]
  viability, T/C: 4.99%
[16]
  viability, T/C: 3.15%
[17]
  viability, T/C: 3.99%
[18]
  viability, T/C: 51.9%
[19]
  viability, T/C: 43.7%
[20]
  viability, T/C: 19.2%
[21]
  viability, T/C: 5.94%
[22]
  viability, T/C: 3.81%
[23]
  viability, T/C: 4.68%
[24]
  viability, T/C: 43%
[25]
  viability, T/C: 39.5%
[26]
  viability, T/C: 18.3%
[27]
  viability, T/C: 5.67%
[28]
  viability, T/C: 3.74%
[29]
  viability, T/C: 4.48%
[30]
  viability, T/C: 37.5%
[31]
  viability, T/C: 31.5%
[32]
  viability, T/C: 16.8%
[33]
  viability, T/C: 6.91%
[34]
  viability, T/C: 4.75%
[35]
  viability, T/C: 5.76%

## Nc1ncn(C2CC(O)C(CO)O2)c(=O)n1 (centres undefined) + NC1CCC(NC2CC2c2ccccc2)CC1
[1]
  IC50: > 1000 nM
[2]
  IC50: > 1000 nM
[3]
  IC50: > 1000 nM
[4]
  IC50: > 1000 nM
[5]
  IC50: > 1000 nM
[6]
  viability, T/C: 104%
[7]
  viability, T/C: 109%
[8]
  viability, T/C: 99.7%
[9]
  viability, T/C: 97.5%
[10]
  viability, T/C: 98.7%
[11]
  viability, T/C: 96.2%
[12]
  viability, T/C: 103%
[13]
  viability, T/C: 98.8%
[14]
  viability, T/C: 99.8%
[15]
  viability, T/C: 98.5%
[16]
  viability, T/C: 92.5%
[17]
  viability, T/C: 86.6%
[18]
  viability, T/C: 102%
[19]
  viability, T/C: 109%
[20]
  viability, T/C: 100%
[21]
  viability, T/C: 97.9%
[22]
  viability, T/C: 93.5%
[23]
  viability, T/C: 92.2%
[24]
  viability, T/C: 98.6%
[25]
  viability, T/C: 104%
[26]
  viability, T/C: 102%
[27]
  viability, T/C: 97.6%
[28]
  viability, T/C: 92.6%
[29]
  viability, T/C: 95.8%
[30]
  viability, T/C: 99.3%
[31]
  viability, T/C: 100%
[32]
  viability, T/C: 96.7%
[33]
  viability, T/C: 106%
[34]
  viability, T/C: 92.8%
[35]
  viability, T/C: 97.1%

## CC[C@@]1(O)C(=O)OCc2c1cc1n(c2=O)Cc2cc3c(CN(C)C)c(O)ccc3nc2-1
Compound 0.000316 µM
  viability, T/C: 94% and 106%
Compound 0.001 µM
  viability, T/C: 86.2% and 81.2%
Compound 0.00316 µM
  viability, T/C: 33.5% and 14.2%
Compound 0.01 µM
  viability, T/C: 27.7% and 10.6%
Compound 0.0316 µM
  viability, T/C: 19.8% and 6.98%
Compound 0.1 µM
  viability, T/C: 15.5% and 4.68%
Curve of compound
  IC50: 2.22 nM and 1.71 nM

## CC1COCCN1c1cc(C2(S(C)(=N)=O)CC2)nc(-c2ccnc3[nH]ccc23)n1 (centres undefined)
Compound 0.0316 µM
  viability, T/C: 103% and 104%
Compound 0.1 µM
  viability, T/C: 109% and 102%
Compound 0.316 µM
  viability, T/C: 102% and 103%
Compound 1 µM
  viability, T/C: 102% and 105%
Compound 3.16 µM
  viability, T/C: 80.3% and 74.2%
Compound 10 µM
  viability, T/C: 28.5% and 23.1%
Curve of compound
  IC50: 6200 nM and 5450 nM
